Structures can show the parent of a compound that is named as a salt.
Experiment: pH dependence of esmolol degradation in solution
Type: physicochemical
Description: While lower concentration (e.g., 10 mg/ml) ready-to-use compositions of esmolol require an additional buffer to maintain pH, higher concentrations of esmolol in the present invention compositions, provide self-buffering capacity to the composition. […] The concentrate can include a pharmaceutically acceptable buffer to aid in maintaining the pH in a range of from about 3.5 to about 7.0. Preferably, the pH is maintained between about 4.5 and about 5.5, more preferably between 4.9 and 5.1.

SMILES: COC(=O)CCc1ccc(OCC(O)CNC(C)C)cc1 (stereo not shown) [esmolol, methyl-3-[4-(2-hydroxy-3-isopropylamino)propoxy]phenylpropionate hydrochloride]
- pH at which esmolol is most stable: about 5.0

Source: patent US20080293814A1, “CONCENTRATE ESMOLOL” (priority 2007, published 2008)
